Experimental data taken from the supplement of paper PMC11781733.
Structures can show the parent of a compound that is named as a salt.

Key:
Conditions in all cases: exposure time: 15 min to 3 h acute
[1] = test system: Dugesia japonica; experiment: hyperkinesis incidence (% planarians (vehicle-normalised)); higher = higher incidence or increase relative to vehicle control
How it was run: (§1)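 Body shape incidence, for a given shape or for any abnormal shape, is reported ×100 and normalised to vehicle controls on the same plate, with negative values set to 0. D. japonica planarians fasted for 5–7 days were placed one per well in 200 μL in sealed 48-well plates and exposed to at least 5 concentrations. Within 15 minutes–3 hours of exposure, a researcher scored contraction, C-shape, corkscrew and hyperkinesis manually and blind, excluding worms that crawled out.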

[2] = test system: Dugesia japonica; experiment: speed second 30 s blue light vs vehicle (% change vs vehicle); higher = higher incidence or increase relative to vehicle control
How it was run: (§2)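 Crawling speed in the dark or during blue-light periods was measured by automated tracking of intact, fasted Dugesia japonica, one per well of a 48-well plate in 200 μL. Worms were tested 15 min to 3 h after exposure in 0.5% DMSO or water vehicle. Eight worms per concentration per plate were run in technical triplicate (n = 24). Each worm was normalised to the plate's vehicle median, and the value is the median percent change; worms that crawled out were excluded.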

[3] = test system: Dugesia japonica; experiment: anxiety (time in outer well region) vs vehicle (% change vs vehicle); higher = higher incidence or increase relative to vehicle control
How it was run: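 Dugesia japonica planarians fasted for 5–7 days were placed one per well in 200 μL in sealed 48-well plates and exposed to at least 5 concentrations, with n = 24 per concentration in technical triplicates, then screened within 15 minutes–3 hours. Object tracking in MATLAB or Python measured the time each worm spent in the outer portion of the well, and worms that crawled out were excluded. Each response was divided by, or reduced by, the plate vehicle median and multiplied by 100. The reported value is the median of these normalized responses.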

[4] = test system: Dugesia japonica; experiment: corkscrew incidence (% planarians (vehicle-normalised)); higher = higher incidence or increase relative to vehicle control
How it was run: as §1

[5] = test system: Dugesia japonica; experiment: C-shape incidence (% planarians (vehicle-normalised)); higher = higher incidence or increase relative to vehicle control
How it was run: as §1

[6] = test system: Dugesia japonica; experiment: contracted body shape incidence (% planarians (vehicle-normalised)); higher = higher incidence or increase relative to vehicle control
How it was run: as §1

[7] = test system: Dugesia japonica; experiment: stickiness incidence (% planarians (vehicle-normalised)); higher = higher incidence or increase relative to vehicle control
How it was run: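 Worms that crawled out of their wells were excluded from this binary stickiness endpoint, scored in fasted Dugesia japonica planarians and normalised to vehicle incidence on the same plate. Each planarian was kept alone in a sealed 48-well plate well in 200 μL of solution, with 0.5% DMSO or water as vehicle, and tested 15 min–3 h after exposure to half- or quarter-log concentration series. Technical triplicates were pooled (n = 24), negative values became 0, and values were multiplied by 100.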

[8] = test system: Dugesia japonica; experiment: total locomotor bursts minus vehicle (bursts difference vs vehicle); higher = higher incidence or increase relative to vehicle control
How it was run: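 The value is the median normalised response for total locomotor bursts, an unstimulated behaviour measured by image-based object tracking in fasted Dugesia japonica planarians. Animals sat singly in the wells of a sealed 48-well plate in 200 μL solution and were tested 15 min–3 h after exposure to half- or quarter-log concentration series in 0.5% DMSO or water. Each planarian's value was corrected by subtracting the plate vehicle-control median, with no ×100 scaling, and crawled-out worms were left out.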

[9] = test system: Dugesia japonica; experiment: speed in dark vs vehicle (% change vs vehicle); higher = higher incidence or increase relative to vehicle control
Protocol: (§3)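 Adult asexual Dugesia japonica planarians (1 per well, 48-well plate, n=24 over technical triplicates) were exposed acutely (15 min to 3 h) to each compound (0.5% DMSO or water vehicle) and screened on a robotic platform for crawl-out, stickiness, body shape, phototaxis, noxious-heat scrunching and locomotion endpoints. Binary endpoints are incidence rate x100 normalised to in-plate vehicle controls. Continuous endpoints are the median response normalised to the plate vehicle median, as % change or difference. Negative incidences after vehicle subtraction were set to 0.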

[10] = test system: Dugesia japonica; experiment: loss of heat-induced scrunching incidence (% planarians (vehicle-normalised)); higher = higher incidence or increase relative to vehicle control
How it was run: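 Planarians of the species D. japonica, fasted for 5–7 days, were placed singly in wells of sealed 48-well plates in 200 μL and exposed to at least 5 concentrations, 24 worms per concentration in technical triplicates. Scrunching in response to a noxious heat stimulus was tested within 15 minutes–3 hours, and any worm that crawled out was excluded. The reported figure is the incidence of non-scrunching worms, normalised to vehicle controls on the same plate. This incidence is given ×100, with negatives set to 0.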

[11] = test system: Dugesia japonica; experiment: resting fraction in dark vs vehicle (difference in fraction x100 vs vehicle); higher = higher incidence or increase relative to vehicle control
How it was run: (§4)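 In technical triplicate, eight intact, fasted Dugesia japonica per concentration per plate were tracked automatically to score the resting fraction in the dark or under blue light. Each worm had its own well of a 48-well plate containing 200 μL and was tested 15 min to 3 h after exposure in 0.5% DMSO or water vehicle. Reported values are medians of each worm's difference from the plate's vehicle median multiplied by 100, leaving out worms that crawled out.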

[12] = test system: Dugesia japonica; experiment: any abnormal body shape incidence (% planarians (vehicle-normalised)); higher = higher incidence or increase relative to vehicle control
How it was run: as §1

[13] = test system: Dugesia japonica; experiment: pharynx extrusion incidence (% planarians (vehicle-normalised)); higher = higher incidence or increase relative to vehicle control
How it was run: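 Fasted, intact Dugesia japonica were scored manually and blind for pharynx extrusion as a body-shape category, with the incidence normalised to in-plate vehicle controls. Testing took place 15 min to 3 h after exposure, one worm per well in 200 μL of 0.5% DMSO or water vehicle, with eight worms per concentration per plate in triplicate (n = 24). Worms that crawled out were excluded, and negative values were set to 0.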

[14] = test system: Dugesia japonica; experiment: noxious heat displacement strength vs vehicle (% change vs vehicle); higher = higher incidence or increase relative to vehicle control
How it was run: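 Each intact, fasted Dugesia japonica was tested alone in a well of a 48-well plate in 200 μL, 15 min to 3 h after exposure in 0.5% DMSO or water vehicle. Eight worms per concentration per plate were used in technical triplicate (n = 24). Displacement strength under noxious heat came from the scrunching assay with automated object tracking and is given as the median percent change against the plate's vehicle median, excluding worms that crawled out.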

[15] = test system: Dugesia japonica; experiment: speed first 30 s blue light vs vehicle (% change vs vehicle); higher = higher incidence or increase relative to vehicle control
How it was run: as §2

[16] = test system: Dugesia japonica; experiment: crawl-out incidence (% planarians); higher = higher incidence or increase relative to vehicle control
Protocol: as §3, with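 “x100.” for “x100 normalised to in-plate vehicle controls.”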

[17] = test system: Dugesia japonica; experiment: resting fraction in blue light vs vehicle (difference in fraction x100 vs vehicle); higher = higher incidence or increase relative to vehicle control
How it was run: as §4

[18] = test system: Dugesia japonica; experiment: loss of phototaxis incidence (% planarians (vehicle-normalised)); higher = higher incidence or increase relative to vehicle control
How it was run: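 For each concentration, eight intact, fasted Dugesia japonica per plate were placed singly in wells of a 48-well plate in 200 μL and run in technical triplicate (n = 24). Testing took place 15 min to 3 h after exposure in 0.5% DMSO or water vehicle. Loss of phototaxis was recorded as present or absent by automated object tracking and expressed as an incidence rate normalised to in-plate vehicle controls. For this rate, ×100 was applied, negatives were set to 0, and worms that crawled out were excluded.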

[19] = test system: Dugesia japonica; experiment: crawl-out incidence (% planarians); higher = higher incidence or increase relative to vehicle control; remark: listed apart in the source
[20] = test system: Dugesia japonica; experiment: speed in dark vs vehicle (% change vs vehicle); higher = higher incidence or increase relative to vehicle control; remark: listed apart in the source
How it was run: as §2

Row | Structure (SMILES) | hyperkinesis incidence [1] | speed second 30 s blue light [2] | anxiety [3] | corkscrew incidence [4] | C-shape incidence [5] | contracted body shape incidence [6] | stickiness incidence [7] | total locomotor bursts minus vehicle [8] | speed in dark [9] | loss of heat-induced scrunching incidence [10] | resting fraction in dark [11] | any abnormal body shape incidence [12] | pharynx extrusion incidence [13] | noxious heat displacement strength [14] | speed first 30 s blue light [15] | crawl-out incidence [16] | resting fraction in blue light [17] | loss of phototaxis incidence [18] | crawl-out incidence [19] | speed in dark [20]
1 | O=C1CCc2ccc(OCCCCN3CCN(c4cccc(Cl)c4Cl)CC3)cc2N1 [aripiprazole] (1 µM) | 0 | 14.3 | 1.67 | 0 | 0 | 0 | ≤ 0 | -5.5 | 42.8 | ≤ 0 | -2.8 | 0 | 0 | 14.8 | 26 | 0 | -0.33 | 29.2 |  | 
2 | O=C(CCCN1CCC(O)(c2ccc(Br)cc2)CC1)c1ccc(F)cc1 [bromperidol] (1 µM) | 17.4 | -17.1 | 7.55 | 4.35 | 0 | 0 | ≤ 0 | 2.5 | -18.6 | 30.4 | 14.6 | 17.4 | 0 | -35.1 | -39.2 | 12.5 | 17.6 | ≤ 0 |  | 
3 | CC(NC(C)(C)C)C(=O)c1cccc(Cl)c1 (configuration not stated) [bupropion] (10 µM) | 0 | 0.8 | 3.29 | 0 | 0 | 0 | ≤ 0 | -6 | -21.4 | 4.17 | 34.4 | 0 | 0 | -1.43 | -36.3 | 0 | 12.6 | 12.5 |  | 
4 | O=C1CC2(CCCC2)CC(=O)N1CCCCN1CCN(c2ncccn2)CC1 [buspirone] (1 µM) | 8.33 | -19.1 | 3.11 | 0 | 4.17 | 0 | ≤ 0 | 0.5 | 11.8 | ≤ 0 | -6.06 | 12.5 | 0 | -21.9 | -6.54 | 0 | 4.28 | 16.7 |  | 
5 | CN(C)CCCC1(c2ccc(F)cc2)OCc2cc(C#N)ccc21 (configuration not stated) [citalopram hydrobromide] (10 µM) | 8.33 | -12.8 | 5.9 | 0 | 0 | 0 | 12.5 | 1.75 | -7.94 | 25 | 1.41 | 12.5 | 0 | -8.3 | 9.22 | 0 | 0.82 | 16.7 |  | 
6 | CN1CCN(C2=Nc3cc(Cl)ccc3Nc3ccccc32)CC1 [clozapine] (1 µM) | 8.33 | -79.8 | -1.98 | 0 | 0 | 4.17 | 4.17 | 38.8 | -73.5 | 4.17 | 55.3 | 8.33 | 0 | -43.5 | -82 | 0 | 36.4 | 8.33 |  | 
7 | CN1C(=O)CN=C(c2ccccc2)c2cc(Cl)ccc21 [diazepam] (1 µM) | 0 | -4.48 | 2.23 | 0 | 0 | 0 | 4.17 | -4.5 | 23.3 | 12.5 | -6.08 | 0 | 0 | -18.8 | 30.1 | 0 | -0.17 | 8.33 |  | 
8 | O=C(CCCN1CC=C(n2c(=O)[nH]c3ccccc32)CC1)c1ccc(F)cc1 [droperidol] (1 µM) | 12.5 | -69.5 | 11.5 | 4.17 | 0 | 0 | ≤ 0 | 11.8 | -60.7 | 58.3 | 3.77 | 16.7 | 0 | -54.4 | -63.6 | 0 | 9.81 | 16.7 |  | 
9 | CN(C)CCC[C@@]1(c2ccc(F)cc2)OCc2cc(C#N)ccc21 [escitalopram] (10 µM) | 0 | 16 | 1.04 | 0 | 0 | 0 | 16.7 | 0.5 | 22.6 | 8.33 | -4.34 | 0 | 0 | -2.51 | 23.1 | 0 | 0 | ≤ 0 |  | 
10 | [Cl-].[Na+] [sodium chloride] (3470 µM) | 0 | -2.5 | -4.03 | 0 | 0 | 0 | ≤ 0 | 0.5 |  | 12.5 | 2.94 | 0 | 0 | -5.24 | 18.8 |  | -8.67 | ≤ 0 | 4.17 | -7.38
11 | CCCCNc1c(C(=O)OCC)c(C)nc2c1cnn2CC [tracazolate hydrochloride] (3.16 µM) | 12.5 | -5.52 | -16.4 | 0 | 0 | 0 | ≤ 0 | 0.5 |  | ≤ 0 | 0 | 8.33 | 0 | -6.19 | -7.17 |  | 0.22 | 8.33 | 0 | -4.2
12 | CCCCNc1c(C(=O)OCC)c(C)nc2c1cnn2CC [tracazolate hydrochloride] (10 µM) | 0 | -17.8 | -12.6 | 0 | 0 | 0 | ≤ 0 | 4.5 |  | 16.7 | 1.52 | 0 | 0 | -3.78 | -24.7 |  | 0 | ≤ 0 | 0 | -27.1
13 | CCCCNc1c(C(=O)OCC)c(C)nc2c1cnn2CC [tracazolate hydrochloride] (31.6 µM) | 12.5 | -87.7 | -51.8 | 8.33 | 79.2 | 4.17 | ≤ 0 | 55.8 |  | 41.7 | 39.1 | 83.3 | 0 | -31.1 | -90.9 |  | 51 | 33.3 | 0 | -78.9
14 | CCCCNc1c(C(=O)OCC)c(C)nc2c1cnn2CC [tracazolate hydrochloride] (100 µM) | 70.8 | -91.7 | -79.8 | 12.5 | 87.5 | 4.17 | ≤ 0 | 81.5 |  | 29.2 | 61.7 | 91.7 | 8.33 | -63.6 | -91.5 |  | 59 | 12.5 | 0 | -83.4
